Values joined by “and” are separate entries in the source; they are usually repeats but may differ in a detail not shown here. Equal entries are not always repeated. Toxic doses and inconclusive results are not listed. Cut-off read from the data, not from the text of the source: active = T/C of 150% or more; inactive = T/C below 125%.
Tested on: L1210 leukemia ip in BDF1 mice, survival T/C
Test: NCI In Vivo Anticancer Drug Screen. Data for tumor model L1210 Leukemia (intraperitoneal) in B6D2F1 (BDF1) mice
Conditions: endpoint: mean survival time, higher = longer survival
Procedure, shortened: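 Mice bearing the transplanted tumor received compound or vehicle. Survival of the treated group was divided by that of the vehicle-treated control group to give the ratio.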

[1] = dose: 25.0 mg/kg/injection, schedule: Q04DX002 (ip), vehicle: Klucel (hydroxypropylcellulose) (HPC)
[2] = dose: 50.0 mg/kg/injection, schedule: Q04DX002 (ip), vehicle: Klucel (hydroxypropylcellulose) (HPC)
[3] = dose: 100.0 mg/kg/injection, schedule: Q04DX002 (ip), vehicle: Klucel (hydroxypropylcellulose) (HPC)
[4] = dose: 200.0 mg/kg/injection, schedule: Q01DX009 (ip), vehicle: Klucel (hydroxypropylcellulose) (HPC)
[5] = dose: 400.0 mg/kg/injection, schedule: Q01DX009 (ip), vehicle: Klucel (hydroxypropylcellulose) (HPC)
[6] = dose: 100.0 mg/kg/injection, schedule: Q01DX001 (ip), vehicle: other
[7] = dose: 100.0 mg/kg/injection, schedule: Q04DX003 (ip), vehicle: gum acacia
[8] = dose: 200.0 mg/kg/injection, schedule: Q04DX003 (ip), vehicle: gum acacia
[9] = dose: 400.0 mg/kg/injection, schedule: Q04DX003 (ip), vehicle: gum acacia
[10] = dose: 100.0 mg/kg/injection, schedule: Q04DX002 (ip), vehicle: saline
[11] = dose: 200.0 mg/kg/injection, schedule: Q04DX002 (ip), vehicle: saline
[12] = dose: 400.0 mg/kg/injection, schedule: Q04DX002 (ip), vehicle: saline
[13] = dose: 75.0 mg/kg/injection, schedule: Q01DX001 (ip), vehicle: saline
[14] = dose: 150.0 mg/kg/injection, schedule: Q01DX001 (ip), vehicle: saline
[15] = dose: 300.0 mg/kg/injection, schedule: Q01DX001 (ip), vehicle: saline
[16] = dose: 100.0 mg/kg/injection, schedule: Q01DX009 (ip), vehicle: saline with Tween-80
[17] = dose: 200.0 mg/kg/injection, schedule: Q01DX009 (ip), vehicle: saline with Tween-80
[18] = dose: 100.0 mg/kg/injection, schedule: Q04DX002 (ip), vehicle: saline with Tween-80
[19] = dose: 400.0 mg/kg/injection, schedule: Q01DX009 (ip), vehicle: saline with Tween-80
[20] = dose: 100.0 mg/kg/injection, schedule: Q04DX003 (ip), vehicle: saline with Tween-80
[21] = dose: 200.0 mg/kg/injection, schedule: Q04DX003 (ip), vehicle: saline with Tween-80
[22] = dose: 400.0 mg/kg/injection, schedule: Q04DX003 (ip), vehicle: saline with Tween-80

Measured: T/C

C/C(=N/N(C)C)c1cccs1
inactive: dose: 4.0 mg/kg/injection, schedule: Q04DX003 (sc), vehicle: olive oil, sesame oil, peanut oil 89 % of control | dose: 6.0 mg/kg/injection, schedule: Q04DX003 (sc), vehicle: olive oil, sesame oil, peanut oil 103 % of control | dose: 9.0 mg/kg/injection, schedule: Q04DX003 (sc), vehicle: olive oil, sesame oil, peanut oil 99 % of control | dose: 12.5 mg/kg/injection, schedule: Q04DX003 (sc), vehicle: olive oil, sesame oil, peanut oil 102 % of control | dose: 14.0 mg/kg/injection, schedule: Q04DX003 (sc), vehicle: olive oil, sesame oil, peanut oil 97 % of control | dose: 22.0 mg/kg/injection, schedule: Q04DX003 (sc), vehicle: olive oil, sesame oil, peanut oil 120 % of control | dose: 33.0 mg/kg/injection, schedule: Q04DX003 (sc), vehicle: olive oil, sesame oil, peanut oil 124 % of control | dose: 50.0 mg/kg/injection, schedule: Q04DX003 (sc), vehicle: olive oil, sesame oil, peanut oil 98 % of control

Clc1ccccc1C(c1cccc2ccccc12)n1ccnc1 (configuration not stated)
inactive: [1] 92 % of control | [2] 100 % of control | [3] 100 % of control | [4] 93 % of control | [5] 86 % of control

CN1CCN(C(=O)OCCOCCOC(=O)N2CCN(C)CC2)CC1
inactive: dose: 150.0 mg/kg/injection, schedule: Q01DX Z (ip), vehicle: saline 108 % of control | dose: 230.0 mg/kg/injection, schedule: Q01DX Z (ip), vehicle: saline 93 % of control | dose: 350.0 mg/kg/injection, schedule: Q01DX Z (ip), vehicle: saline 100 % of control

CS(=O)(=O)OCCN(CCOS(C)(=O)=O)c1ccccc1
inactive: [6] 100 % of control

O=C(N(CCc1ccc(O)cc1)Cc1ccc2c(c1)OCO2)C(F)(F)F
inactive: [7] 91 % of control | [8] 91 % of control | [9] 88 % of control

CCCCCCOC(=O)CCCc1ccc(N(CCCl)CCCl)cc1
inactive: [10] 114 % of control | [11] 111 % of control | [12] 124 % of control

Oc1cc2c(cc1O)CN1CCc3cc(O)c(O)cc3C1C2 (configuration not stated)
inactive: [13] 103 % of control | [14] 105 % of control | [15] 93 % of control

O=C1OCC/C1=C\N1CCCCC1
inactive: [1] 113 % of control | [2] 98 % of control | [3] 98 % of control and 101 % of control

COc1ccccc1N=Cc1ccccc1O.[Co]
inactive: [6] 94 % of control | dose: 200.0 mg/kg/injection, schedule: Q01DX001 (ip), vehicle: other 94 % of control | dose: 400.0 mg/kg/injection, schedule: Q01DX001 (ip), vehicle: other 93 % of control

Nc1ccc(Oc2ccc(Cl)cc2)c(Cl)c1
inactive: [16] 103 % of control | dose: 100.0 mg/kg/injection, schedule: Q04DX003 (ip), vehicle: Klucel (hydroxypropylcellulose) (HPC) 103 % of control | [17] 94 % of control | dose: 200.0 mg/kg/injection, schedule: Q04DX003 (ip), vehicle: Klucel (hydroxypropylcellulose) (HPC) 92 % of control | dose: 400.0 mg/kg/injection, schedule: Q04DX003 (ip), vehicle: Klucel (hydroxypropylcellulose) (HPC) 111 % of control

CCOC(=O)c1c(O)c(=O)[nH]c2ccccc12
inactive: [16] 97 % of control | [18] 101 % of control | [17] 108 % of control | dose: 200.0 mg/kg/injection, schedule: Q04DX002 (ip), vehicle: saline with Tween-80 118 % of control | [19] 101 % of control | dose: 400.0 mg/kg/injection, schedule: Q04DX002 (ip), vehicle: saline with Tween-80 97 % of control

CCCC1(CC)C(=O)N=C(N)NC1=O (configuration not stated)
inactive: dose: 25.0 mg/kg/injection, schedule: Q01DX001 (ip), vehicle: Klucel (hydroxypropylcellulose) (HPC) 95 % of control | dose: 50.0 mg/kg/injection, schedule: Q01DX001 (ip), vehicle: Klucel (hydroxypropylcellulose) (HPC) 104 % of control

CCOC(=O)C1CC[N+](=c2cc(-c3ccc(Cl)cc3)ss2)CC1 (configuration not stated)
inactive: dose: 100.0 mg/kg/injection, schedule: Q04DX003 (ip), vehicle: saline 95 % of control | dose: 200.0 mg/kg/injection, schedule: Q04DX003 (ip), vehicle: saline 96 % of control | dose: 400.0 mg/kg/injection, schedule: Q04DX003 (ip), vehicle: saline 101 % of control

C/C(=N/N=C(N)N)c1cccnc1
inactive: dose: 15.0 mg/kg/injection, schedule: Q01DX Z (ip), vehicle: saline 106 % of control | dose: 30.0 mg/kg/injection, schedule: Q01DX Z (ip), vehicle: saline 106 % of control | dose: 60.0 mg/kg/injection, schedule: Q01DX Z (ip), vehicle: saline 108 % of control | dose: 120.0 mg/kg/injection, schedule: Q01DX Z (ip), vehicle: saline 93 % of control

O=C1NC(c2ccccc2)(c2ccccc2)C(=O)N1CN1CCN(CN2C(=O)NC(c3ccccc3)(c3ccccc3)C2=O)CC1
inactive: dose: 6.25 mg/kg/injection, schedule: Q01DX009 (ip), vehicle: saline sonified 99 % of control | dose: 12.5 mg/kg/injection, schedule: Q01DX009 (ip), vehicle: saline sonified 100 % of control | dose: 25.0 mg/kg/injection, schedule: Q01DX009 (ip), vehicle: saline sonified 94 % of control | dose: 100.0 mg/kg/injection, schedule: Q01DX001 (ip), vehicle: Klucel (hydroxypropylcellulose) (HPC) 108 % of control | dose: 200.0 mg/kg/injection, schedule: Q01DX001 (ip), vehicle: Klucel (hydroxypropylcellulose) (HPC) 92 % of control | dose: 400.0 mg/kg/injection, schedule: Q01DX001 (ip), vehicle: Klucel (hydroxypropylcellulose) (HPC) 92 % of control

O=C1OC(c2cccc([N+](=O)[O-])c2)=N/C1=C\c1cccc2ccccc12
inactive: dose: 100.0 mg/kg/injection, schedule: Q01DX009 (ip), vehicle: Klucel (hydroxypropylcellulose) (HPC) 94 % of control | [10] 96 % of control | [4] 105 % of control | [11] 101 % of control | [5] 97 % of control | [12] 94 % of control

CCOC(=O)C1=C(O)C(=O)C(C(=O)OCC)C1 (configuration not stated)
inactive: [13] 86 % of control | [14] 106 % of control | [15] 90 % of control

COc1cccc(CNc2ccc(C)c(Cl)c2)c1OC
inactive: dose: 100.0 mg/kg/injection, schedule: Q01DX009 (ip), vehicle: gum acacia 99 % of control | [7] 104 % of control | dose: 200.0 mg/kg/injection, schedule: Q01DX009 (ip), vehicle: gum acacia 108 % of control | [8] 97 % of control | dose: 400.0 mg/kg/injection, schedule: Q01DX009 (ip), vehicle: gum acacia 87 % of control | [9] 90 % of control

NC(=O)c1ccccc1NC(=O)Nc1cccc(F)c1
inactive: dose: 25.0 mg/kg/injection, schedule: Q01DX009 (ip), vehicle: saline with Tween-80 89 % of control | dose: 50.0 mg/kg/injection, schedule: Q01DX009 (ip), vehicle: saline with Tween-80 95 % of control | [16] 104 % of control | [17] 90 % of control | [19] 96 % of control

O=Nc1ccc(SCC(=O)NNC(=O)CSc2ccc(N=O)cc2[N+](=O)[O-])cc1
inactive: [20] 93 % of control

CCCCCCCCCCCCc1c(C(OC)OC)[nH]c(=S)[nH]c1=O
inactive: [16] 94 % of control | [20] 98 % of control | [17] 100 % of control | [21] 96 % of control | [19] 103 % of control | [22] 93 % of control

COc1ccccc1-n1c(C)nc2c1C(=O)c1ccccc1C2=O
inactive: [20] 96 % of control | [21] 93 % of control | [22] 96 % of control

CC(CO)(CO)N=Cc1ccc(N(CCCl)CCCl)cc1
inactive: dose: 100.0 mg/kg/injection, schedule: Q01DX001 (ip), vehicle: carboxymethylcellulose (CMC) 106 % of control | dose: 200.0 mg/kg/injection, schedule: Q01DX001 (ip), vehicle: carboxymethylcellulose (CMC) 97 % of control | dose: 400.0 mg/kg/injection, schedule: Q01DX001 (ip), vehicle: carboxymethylcellulose (CMC) 101 % of control

Cc1cc(C)c(C(=O)c2ccccc2C(=O)OC(=O)c2ccccc2C(=O)c2c(C)cc(C)cc2C)c(C)c1
inactive: [18] 88 % of control

From PubChem BioAssay AID248 (DTP/NCI, 2004)
